Experimental data as given in patent US10273226B2, “Pyrazolyl-heteroarylamides as pesticides” (Bayer Animal Health GmbH, priority 2014, dated 2019).

How the values were obtained:
Format in all cases: in vivo
Boophilus microplus = Boophilus microplus injection test; conditions: application rate 20 μg/animal; injection into abdomen; assessed after 7 days
Method: Boophilus microplus—Injection Test
(§1) Solvent: dimethyl sulphoxide
To produce an appropriate active ingredient formulation, 10 mg of active ingredient are mixed with 0.5 ml of solvent and the concentrate is diluted with solvent to the desired concentration.
1 μl of the active ingredient solution is injected into the abdomen of 5 engorged adult female cattle ticks (Boophilus microplus). The animals are transferred into dishes and kept in a climate-controlled room.
Efficacy is assessed after 7 days by laying of fertile eggs. Eggs which are not visibly fertile are stored in a climate-controlled cabinet until the larvae hatch after about 42 days. An efficacy of 100% means that none of the ticks has laid any fertile eggs; 0% means that all the eggs are fertile.

Ctenocephalides felis = Ctenocephalides felis oral test; conditions: application rate 100 ppm in citrated cattle blood; after 2 days
Method: Ctenocephalides felis—Oral Test
as §1
For the purpose of producing an appropriate active ingredient formulation, 10 mg of active ingredient are mixed with 0.5 ml of dimethyl sulphoxide. Dilution with citrated cattle blood gives the desired concentration.
About 20 unfed adult cat fleas (Ctenocephalides felis) are placed into a chamber which is closed at the top and bottom with gauze. A metal cylinder whose bottom end is closed with parafilm is placed onto the chamber. The cylinder contains the blood/active ingredient preparation, which can be imbibed by the fleas through the parafilm membrane.
After 2 days, the kill in % is determined. 100% means that all of the fleas have been killed; 0% means that none of the fleas have been killed.

Lucilia cuprina = Lucilia cuprina test; conditions: application rate 100 ppm; L1 larvae; after 2 days
Method: as §1
To produce an appropriate active ingredient formulation, 10 mg of active ingredient are mixed with 0.5 ml of dimethyl sulphoxide, and the concentrate is diluted with water to the desired concentration.
About 20 L1 larvae of the Australian sheep blowfly (Lucilia cuprina) are transferred into a test vessel containing minced horsemeat and the active ingredient preparation of the desired concentration.
After 2 days, the kill in % is determined. 100% means that all the larvae have been killed and 0% means that none of the larvae have been killed.

Spodoptera frugiperda = Spodoptera frugiperda spray test; conditions: caterpillars, after 7 days
Method: Spodoptera frugiperda—Spray Test
(§2) To produce an appropriate active ingredient formulation, 1 part by weight of active ingredient is dissolved using the specified parts by weight of solvent and made up with water containing an emulsifier concentration of 1000 ppm until the desired concentration is attained. To produce further test concentrations, the preparation is diluted with emulsifier-containing water.
Leaf discs of maize (Zea mays) are sprayed with an active ingredient formulation of the desired concentration and, after drying, populated with caterpillars of the armyworm (Spodoptera frugiperda).
After 7 days, efficacy in % is determined. 100% means that all the caterpillars have been killed; 0% means that no caterpillars have been killed.

Phaedon cochleariae = Phaedon cochleariae spray test; conditions: application rate 100 g/ha; larvae; after 7 days
Method: Phaedon cochleariae—Spray Test
as §2
Discs of Chinese cabbage leaves (Brassica pekinensis) are sprayed with an active ingredient formulation of the desired concentration and, after drying, populated with larvae of the mustard beetle (Phaedon cochleariae).
After 7 days, efficacy in % is determined. 100% means that all the beetle larvae have been killed; 0% means that no beetle larvae have been killed.

Rhipicephalus sanguineus = Rhipicephalus sanguineus in vitro contact test with adult brown dog ticks; conditions: after 48 h, ticks dead or moribund
Method: Rhipicephalus sanguineus—In Vitro Contact Tests with Adult Brown Dog Ticks
For the coating of the test tubes, 9 mg of active ingredient are first dissolved in 1 ml of acetone p.a. and then diluted to the desired concentration with acetone p.a. 250 μl of the solution are distributed homogeneously on the inner walls and base of a 25 ml test tube by turning and rocking on an orbital shaker (rocking rotation at 30 rpm for 2 h). With 900 ppm active ingredient solution and internal surface 44.7 cm^2, given homogeneous distribution, an area-based dose of 5 μg/cm^2 is achieved.
After the solvent has evaporated off, the tubes are populated with 5-10 adult dog ticks (Rhipicephalus sanguineus), sealed with a perforated plastic lid and incubated in a horizontal position in the dark at room temperature and ambient humidity. After 48 h, efficacy is determined. To this end, the ticks are knocked to the floor of the tube and incubated on a hotplate at 45-50° C. for not more than 5 min. Ticks which remain motionless on the floor or move in such an uncoordinated manner that they are unable to deliberately avoid the heat by climbing upwards are considered to be dead or moribund.
An efficacy of 100% means that all the ticks were dead or moribund. 0% efficacy means that none of the ticks had been harmed.

[1] = application rate 5 μg/cm^2 (500 g/ha)

SMILES | efficacy (laying of fertile eggs) (Boophilus microplus) [%] | efficacy (kill in %) (Ctenocephalides felis) [%] | efficacy (kill in %) (Lucilia cuprina) [%] | other results
Cn1nc(C(F)(F)C(F)(F)F)c(C(F)(F)F)c1-n1cc(-c2ccc(F)c(NC(=O)C(c3ccccc3)C3CCCC3)c2)cn1 (racemic) [Example 1-109] | 80 |  |  | 
CC(Oc1ccccc1)C(=O)Nc1cc(-c2cnn(-c3c(C(F)(F)F)c(C(F)(F)C(F)(F)F)nn3C)c2)ccc1F (racemic) [Example 1-123] | 100 | 90 |  | 
CCC(C(=O)Nc1cc(-c2cnn(-c3c(C(F)(F)F)c(C(F)(F)C(F)(F)F)nn3C)c2)ccc1F)c1ccccc1 (racemic) [Example 1-124] | 100 |  |  | 
Cn1nc(C(F)(F)C(F)(F)F)c(C(F)(F)F)c1-n1cc(-c2cccc(NC(=O)c3ncccc3Cl)c2)cn1 [Example 1-005] | 100 | 100 | 100 | efficacy (Spodoptera frugiperda; application rate 100 g/ha): 100%; efficacy (Phaedon cochleariae): 100%
CCC(=O)Nc1cccc(-c2cnn(-c3c(C(F)(F)F)c(C(F)(F)C(F)(F)F)nn3C)c2)c1 [Example 1-008] | 100 | 100 | 100 | efficacy (Rhipicephalus sanguineus; [1]): 100%
Cn1nc(C(F)(F)C(F)(F)F)c(C(F)(F)F)c1-n1cc(-c2cccc(NC(=O)c3ncccc3Cl)c2F)cn1 [Example 1-020] | 100 | 95 | 90 | 
Cn1nc(C(F)(F)C(F)(F)F)c(C(F)(F)F)c1-n1cc(-c2ccc(Cl)c(NC(=O)c3ncccc3Cl)c2)cn1 [Example 1-021] |  | 80 |  | 
Cn1nc(C(F)(F)C(F)(F)F)c(C(F)(F)F)c1-n1cc(-c2cccc(NC(=O)C3(Cl)CC3)c2)cn1 [Example 1-030] | 100 | 100 | 100 | efficacy (Spodoptera frugiperda; application rate 500 g/ha): 100%; efficacy (Rhipicephalus sanguineus; [1]): 80%
Cn1nc(C(F)(F)C(F)(F)F)c(C(F)(F)F)c1-n1cc(-c2ccc(F)c(NC(=O)c3ccc(F)c(C(F)(F)F)c3)c2)cn1 [Example 1-050] | 100 |  | 100 | efficacy (Phaedon cochleariae): 100%
Cn1nc(C(F)(F)C(F)(F)F)c(C(F)(F)F)c1-n1cc(-c2ccc(F)c(NC(=O)c3cccc(C(F)(F)F)c3)c2)cn1 [Example 1-057] | 100 | 95 | 100 | efficacy (Spodoptera frugiperda; application rate 100 g/ha): 83%
Cc1c(C(=O)Nc2cc(-c3cnn(-c4c(C(F)(F)F)c(C(F)(F)C(F)(F)F)nn4C)c3)ccc2F)oc2ccccc12 [Example 1-059] | 100 |  |  | 
COCCC(=O)Nc1cc(-c2cnn(-c3c(C(F)(F)F)c(C(F)(F)C(F)(F)F)nn3C)c2)ccc1F [Example 1-061] | 100 | 100 |  | efficacy (Rhipicephalus sanguineus; [1]): 80%
Cc1cc(C(F)F)n2nc(C(=O)Nc3cc(-c4cnn(-c5c(C(F)(F)F)c(C(F)(F)C(F)(F)F)nn5C)c4)ccc3F)nc2n1 [Example 1-062] | 100 | 100 | 100 | 
Cn1nc(C(F)(F)C(F)(F)F)c(C(F)(F)F)c1-n1cc(-c2ccc(F)c(NC(=O)c3cccc(F)c3F)c2)cn1 [Example 1-070] | 100 | 100 | 100 | efficacy (Rhipicephalus sanguineus; [1]): 80%
Cn1nc(C(F)(F)C(F)(F)F)c(C(F)(F)F)c1-n1cc(-c2ccc(F)c(NC(=O)c3ccccc3OC(F)(F)F)c2)cn1 [Example 1-074] | 90 |  |  | 
Cn1nc(C(F)(F)C(F)(F)F)c(C(F)(F)F)c1-n1cc(-c2ccc(F)c(NC(=O)CC(C)(C)C)c2)cn1 [Example 1-079] | 100 | 95 | 100 | 
CCOCC(C)(C)C(=O)Nc1cc(-c2cnn(-c3c(C(F)(F)F)c(C(F)(F)C(F)(F)F)nn3C)c2)ccc1F [Example 1-082] | 100 | 90 |  | 
Cc1ccc(C(=O)Nc2cc(-c3cnn(-c4c(C(F)(F)F)c(C(F)(F)C(F)(F)F)nn4C)c3)ccc2F)cc1C [Example 1-090] |  |  |  | efficacy (Phaedon cochleariae): 100%; efficacy (Rhipicephalus sanguineus; [1]): 100%
Cn1nc(C(F)(F)C(F)(F)F)c(C(F)(F)F)c1-n1cc(-c2ccc(F)c(NC(=O)CSc3ccccc3)c2)cn1 [Example 1-107] | 100 |  |  | 
Cc1ccc(C2(C(=O)Nc3cc(-c4cnn(-c5c(C(F)(F)F)c(C(F)(F)C(F)(F)F)nn5C)c4)ccc3F)CCCCC2)cc1 [Example 1-111] | 80 |  |  | 
Cc1cn(CC(=O)Nc2cc(-c3cnn(-c4c(C(F)(F)F)c(C(F)(F)C(F)(F)F)nn4C)c3)ccc2F)nc1C(F)(F)F [Example 1-112] | 95 |  |  | 
Cn1nc(C(F)(F)C(F)(F)F)c(C(F)(F)F)c1-n1cc(-c2ccc(F)c(NC(=O)COCc3ccccc3)c2)cn1 [Example 1-114] | 100 |  |  | 
Cn1nc(C(F)(F)C(F)(F)F)c(C(F)(F)F)c1-n1cc(-c2ccc(F)c(NC(=O)C3(c4ccc(Cl)cc4)CCC3)c2)cn1 [Example 1-115] | 100 | 90 | 80 | 
Cn1nc(C(F)(F)C(F)(F)F)c(C(F)(F)F)c1-n1cc(-c2ccc(F)c(NC(=O)Cc3cccs3)c2)cn1 [Example 1-117] | 100 | 100 | 100 | efficacy (Spodoptera frugiperda; application rate 100 g/ha): 100%; efficacy (Rhipicephalus sanguineus; [1]): 100%
Cn1nc(C(F)(F)C(F)(F)F)c(C(F)(F)F)c1-n1cc(-c2ccc(F)c(NC(=O)CCc3ccccc3)c2)cn1 [Example 1-125] | 100 |  |  | 
Cn1nc(C(F)(F)C(F)(F)F)c(C(F)(F)F)c1-n1cc(-c2cnc(Cl)c(NC(=O)c3ncccc3Cl)c2)cn1 [Example 2-002] | 100 |  |  | 
COc1cc(C(=O)Nc2cc(-c3cnn(-c4c(C(F)(F)F)c(C(F)(F)C(F)(F)F)nn4C)c3)cnc2Cl)ccc1F [Example 2-007] | 100 | 100 | 100 | efficacy (Phaedon cochleariae): 100%; efficacy (Rhipicephalus sanguineus; application rate 1 μg/cm^2 (100 g/ha)): 80%
